Reference: patent publication US9738591B2, “Antimicrobial compounds” (priority 2009, dated 2017)
Values joined by “and” are separate entries in the source; they are usually repeats but may differ in a detail not shown here. Identical values can stand only once.

What was measured:
[1] = system: Staphylococcus aureus NCTC 6571/ATCC 9144; experiment: Disk diffusion; conditions: for Zone of inhibition, S. aureus NCTC 6571: analogues in DMSO, protocol of Example 3; for zones of inhibition with S aureus NCTC6571: applied at 10 mg/ml; for Zone of Inhibition: S. aureus NCTC 6571
E. coli NCTC 10418 = experiment: Disk diffusion; conditions: for Zone of inhibition, E. coli NCTC 10418: analogues in DMSO, protocol of Example 3; for Zone of Inhibition: E. coli NCTC 10418
[2] = system: Bacillus subtilis ATCC 6633; experiment: Disk diffusion; conditions: B. subtilis ATCC 6633
[3] = system: Citrobacter freundii NCTC 9750/ATCC 8090; experiment: Disk diffusion; conditions: C. freundii NCTC 9750
[4] = system: A. calcoaceticus ATCC 15308; experiment: Disk diffusion
[5] = system: Shigella flexneri NCTC 8192; experiment: Disk diffusion; assay type: cell-based; conditions: S. flexneri NCTC 8192
Description: Plates were incubated at 35° C.

[6] = system: Streptococcus pneumoniae ATCC 49619; experiment: Disk diffusion; conditions: S. pneumoniae ATCC 49619
[7] = system: Salmonella enterica subsp. enterica serovar Typhimurium ATCC 13311; experiment: Disk diffusion; conditions: S. typhimurium ATCC 13311
[8] = system: Micrococcus luteus ATCC 10240; experiment: Disk diffusion; conditions: M. luteus ATCC 10240
[9] = system: Enterococcus faecalis NCTC 775; experiment: Disk diffusion; conditions: E. faecalis NCTC 775
C. albicans ATCC 90028 = experiment: Disk diffusion
[10] = system: Aeromonas hydrophila NCTC 8049/ATCC 7966; experiment: Disk diffusion; conditions: A. hydrophila NCTC 8049
[11] = system: Yersinia enterocolitica clinical 26609; experiment: Disk diffusion; conditions: Y. enterocolitica clinical 26609
[12] = system: Streptococcus pyogenes NCTC 8191; experiment: Disk diffusion; conditions: S. pyogenes NCTC 8191
[13] = system: Staphylococcus xylosus ATCC 29971; experiment: Disk diffusion; conditions: S. xylosus ATCC 29971
[14] = system: Bacillus cereus ATCC 13061; experiment: Disk diffusion; conditions: B. cereus ATCC 13061
[15] = system: Escherichia coli NCTC 10538; experiment: Disk diffusion; conditions: E. coli NCTC 10538
[16] = system: Moraxella catarrhalis NCTC 3625; experiment: Disk diffusion; conditions: M. catarrhalis NCTC 3625
[17] = system: Stenotrophomonas maltophilia ATCC 13637; experiment: Disk diffusion; conditions: S. maltophilia ATCC 13637
[18] = system: Pseudomonas aeruginosa NCTC 10662; experiment: Disk diffusion; conditions: P. aeruginosa NCTC 10662
[19] = system: Proteus mirabilis NCTC 10975; experiment: Disk diffusion; conditions: P. mirabilis NCTC 10975
[20] = system: V. cholerae non-01 clinical; experiment: Disk diffusion
[21] = system: Listeria monocytogenes NCTC 7973; experiment: Disk diffusion; conditions: L. monocytogenes NCTC 7973
[22] = system: Staphylococcus epidermidis ATCC 12228; experiment: Disk diffusion; conditions: S. epidermidis ATCC 1228
K. pneumoniae NCTC 10896 = experiment: Disk diffusion
[23] = system: Staphylococcus aureus (methicillin resistant) NCTC 10442; experiment: Disk diffusion; conditions: S. aureus NCTC 10442
[24] = system: S. typhimurium TA98, TA100 and TA1535; experiment: Ames Test for mutagenic activity, no metabolic activation; conditions: 5 μg/plate, duplicate plates

SMILES: CCCCOC(=O)/C=C/c1ccc(-c2cc(-c3ccc(/C=C/C(=O)OCCCC)cc3)cc(-c3ccc(/C=C/C(=O)OCCCC)cc3)c2)cc1 [TCB003]
- Zone of inhibition, S. aureus NCTC 6571 [1]: 0 mm

SMILES: C(=C\c1cc(/C=C/c2ccc(-c3nnn[nH]3)cc2)cc(/C=C/c2ccc(-c3nnn[nH]3)cc2)c1)/c1ccc(-c2nnn[nH]2)cc1 [TSB065]
- Zone of inhibition, E. coli NCTC 10418 (E. coli NCTC 10418): 0 mm
- Zone of inhibition, S. aureus NCTC 6571 [1]: 14 mm

SMILES: O=C(O)c1ccc(CCc2cccc(CCc3ccc(C(=O)O)cc3)c2)cc1 [DSB004]
- zones of inhibition with S aureus NCTC6571 [1]: no zones of inhibition

SMILES: O=C(O)c1ccc(/C=C/c2cc(/C=C/c3ccc(C(=O)O)cc3)c(/C=C/c3ccc(C(=O)O)cc3)cc2/C=C/c2ccc(C(=O)O)cc2)cc1 [QSB001]
- Zone of Inhibition [2]: 0 mm
- Zone of Inhibition [3]: 8.5 mm
- Zone of Inhibition [4]: 0 mm
- Zone of Inhibition [5]: 0 mm
- Zone of Inhibition [6]: 9 mm
- Zone of Inhibition [7]: 8.5 mm
- Zone of Inhibition [8]: 0 mm
- Zone of Inhibition [9]: 0 mm
- Zone of Inhibition (C. albicans ATCC 90028): 0 mm
- Zone of Inhibition [10]: 7 mm
- Zone of Inhibition (E. coli NCTC 10418): 7 mm
- Zone of Inhibition [11]: 7.5 mm
- Zone of Inhibition [12]: 8 mm
- Zone of Inhibition [13]: 0 mm
- Zone of Inhibition [14]: 0 mm
- Zone of Inhibition [15]: 7.5 mm
- Zone of Inhibition [16]: 18 mm
- Zone of Inhibition [17]: 8 mm
- Zone of Inhibition [18]: 0 mm
- Zone of Inhibition [19]: 0 mm
- Zone of Inhibition [20]: 8 mm
- Zone of Inhibition [21]: 0 mm
- Zone of Inhibition [22]: 0 mm
- Zone of Inhibition (K. pneumoniae NCTC 10896): 8 mm
- Zone of Inhibition [23]: 0 mm
- Zone of Inhibition [1]: 8.5 mm

SMILES: CN(C)c1ccc(/C=C/c2cc(/C=C/c3ccc(N(C)C)cc3)cc(/C=C/c3ccc(N(C)C)cc3)c2)cc1 [TSB009]
- Zone of inhibition, S. aureus NCTC 6571 [1]: 0 mm

SMILES: O=C(O)c1ccc(CCc2ccc(CCc3ccc(C(=O)O)cc3)c(CCc3ccc(C(=O)O)cc3)c2)cc1 [TSB068]
- Zone of Inhibition [2]: 0 mm
- Zone of Inhibition [3]: 0 mm
- Zone of Inhibition [4]: 0 mm
- Zone of Inhibition [5]: 0 mm
- Zone of Inhibition [6]: 23 mm
- Zone of Inhibition [7]: 0 mm
- Zone of Inhibition [8]: 8 mm
- Zone of Inhibition [9]: 0 mm
- Zone of Inhibition (C. albicans ATCC 90028): 0 mm
- Zone of Inhibition [10]: 7 mm
- Zone of Inhibition (E. coli NCTC 10418): 0 mm
- Zone of Inhibition [11]: 0 mm
- Zone of Inhibition [12]: 20 mm
- Zone of Inhibition [13]: 0 mm
- Zone of Inhibition [14]: 0 mm
- Zone of Inhibition [15]: 0 mm
- Zone of Inhibition [16]: 32 mm
- Zone of Inhibition [17]: 0 mm
- Zone of Inhibition [18]: 0 mm
- Zone of Inhibition [19]: 0 mm
- Zone of Inhibition [20]: 0 mm
- Zone of Inhibition [21]: 15 mm
- Zone of Inhibition [22]: 0 mm
- Zone of Inhibition (K. pneumoniae NCTC 10896): 0 mm
- Zone of Inhibition [23]: 0 mm
- Zone of Inhibition [1]: 8 mm

SMILES: CCCCOC(=O)/C=C/c1ccc(-c2nc(-c3ccc(/C=C/C(=O)OCCCC)cc3)nc(-c3ccc(/C=C/C(=O)OCCCC)cc3)n2)cc1 [TCT003]
- Zone of inhibition, E. coli NCTC 10418 (E. coli NCTC 10418): 0 mm
- Zone of inhibition, S. aureus NCTC 6571 [1]: 0 mm

SMILES: O=C(O)c1ccc(CCc2ccc(CCc3ccc(C(=O)O)cc3)cc2)cc1 [DSD002]
- zones of inhibition with S aureus NCTC6571 [1]: no zones of inhibition

SMILES: COc1ccc(/C=C/c2cc(/C=C/c3ccc(OC)cc3)cc(/C=C/c3ccc(OC)cc3)c2)cc1 [TSB019]
- Zone of inhibition, E. coli NCTC 10418 (E. coli NCTC 10418): 0 mm
- Zone of inhibition, S. aureus NCTC 6571 [1]: 0 mm

SMILES: Cc1ccc(/C=C/c2cc(/C=C/c3ccc(C)cc3)cc(/C=C/c3ccc(C)cc3)c2)cc1 [TSB037]
- Zone of inhibition, E. coli NCTC 10418 (E. coli NCTC 10418): 0 mm
- Zone of inhibition, S. aureus NCTC 6571 [1]: 0 mm

SMILES: CC(=O)c1ccc(/C=C/c2cc(/C=C/c3ccc(C(C)=O)cc3)cc(/C=C/c3ccc(C(C)=O)cc3)c2)cc1 [TSB025]
- Zone of inhibition, E. coli NCTC 10418 (E. coli NCTC 10418): 0 mm
- Zone of inhibition, S. aureus NCTC 6571 [1]: 0 mm

SMILES: N#Cc1ccc(/C=C/c2cc(/C=C/c3ccc(C#N)cc3)cc(/C=C/c3ccc(C#N)cc3)c2)cc1 [TSB063]
- Zone of inhibition, E. coli NCTC 10418 (E. coli NCTC 10418): 0 mm
- Zone of inhibition, S. aureus NCTC 6571 [1]: 0 mm

SMILES: O=C(O)/C=C/c1cc(/C=C/C(=O)O)cc(/C=C/C(=O)O)c1 [TAB001]
- Zone of inhibition, S. aureus NCTC 6571 [1]: 0 mm

SMILES: [N-]=[N+]=[N-] [sodium azide, reference compound]
- Number of colonies, Positive Control ([24]; TA100, negative control 113, 96): 350 and 360
- Number of colonies, Positive Control ([24]; TA1535, negative control 28, 29): 600

SMILES: O=C(O)/C=C/c1ccc(-c2cc(-c3ccc(/C=C/C(=O)O)cc3)cc(-c3ccc(/C=C/C(=O)O)cc3)c2)cc1 [TCB001]
- Zone of inhibition, S. aureus NCTC 6571 [1]: 11 mm

SMILES: CC(=O)Oc1ccc(/C=C/c2cc(/C=C/c3ccc(OC(C)=O)cc3)cc(/C=C/c3ccc(OC(C)=O)cc3)c2)cc1 [TSB023]
- Zone of inhibition, E. coli NCTC 10418 (E. coli NCTC 10418): 0 mm
- Zone of inhibition, S. aureus NCTC 6571 [1]: 0 mm

SMILES: C(=C\c1cc(/C=C/c2ccncc2)cc(/C=C/c2ccncc2)c1)/c1ccncc1 [TSB053]
- Zone of inhibition, S. aureus NCTC 6571 [1]: 0 mm

SMILES: O=C(O)c1ccc(/C=C/c2ccc(/C=C/c3ccc(C(=O)O)cc3)cc2)cc1 [DSB001]
- zones of inhibition with S aureus NCTC6571 [1]: no zones of inhibition

SMILES: O=C(O)c1ccc(CCc2cc(CCc3ccc(C(=O)O)cc3)c(CCc3ccc(C(=O)O)cc3)cc2CCc2ccc(C(=O)O)cc2)cc1 [QSB002]
- zones of inhibition with S aureus NCTC6571 [1]: no zones of inhibition

SMILES: O=C(O)c1ccc(/C=C/c2ccc(/C=C/c3ccc(C(=O)O)cc3)c(/C=C/c3ccc(C(=O)O)cc3)c2)cc1 [TSB067]
- Zone of Inhibition [2]: 0 mm
- Zone of Inhibition [3]: 0 mm
- Zone of Inhibition [4]: 0 mm
- Zone of Inhibition [5]: 0 mm
- Zone of Inhibition [6]: 16 mm
- Zone of Inhibition [7]: 0 mm
- Zone of Inhibition [8]: 20 mm
- Zone of Inhibition [9]: 0 mm
- Zone of Inhibition (C. albicans ATCC 90028): 0 mm
- Zone of Inhibition [10]: 7 mm
- Zone of Inhibition (E. coli NCTC 10418): 6.5 mm
- Zone of Inhibition [11]: 0 mm
- Zone of Inhibition [12]: 14 mm
- Zone of Inhibition [13]: 0 mm
- Zone of Inhibition [14]: 0 mm
- Zone of Inhibition [15]: 7.5 mm
- Zone of Inhibition [16]: 32 mm
- Zone of Inhibition [17]: 0 mm
- Zone of Inhibition [18]: 0 mm
- Zone of Inhibition [19]: 0 mm
- Zone of Inhibition [20]: 0 mm
- Zone of Inhibition [21]: 12 mm
- Zone of Inhibition [22]: 11 mm
- Zone of Inhibition (K. pneumoniae NCTC 10896): 0 mm
- Zone of Inhibition [23]: 12 mm
- Zone of Inhibition [1]: 14 mm

SMILES: CC(C)Oc1ccc(/C=C/c2cc(/C=C/c3ccc(OC(C)C)c(OC(C)C)c3)cc(/C=C/c3ccc(OC(C)C)c(OC(C)C)c3)c2)cc1OC(C)C [TSB041]
- Zone of inhibition, E. coli NCTC 10418 (E. coli NCTC 10418): 0 mm
- Zone of inhibition, S. aureus NCTC 6571 [1]: 0 mm

SMILES: COc1cc(/C=C/c2cc(/C=C/c3cc(OC)c(OC)c(OC)c3)cc(/C=C/c3cc(OC)c(OC)c(OC)c3)c2)cc(OC)c1OC [TSB049]
- Zone of inhibition, E. coli NCTC 10418 (E. coli NCTC 10418): 0 mm
- Zone of inhibition, S. aureus NCTC 6571 [1]: 0 mm
